Consider 1 compound from patent publication US10792232B2, “Methods to deliver antifibrinolytic drugs for anti-aging results” (MURDOCK TECHNOLOGIES, LLC, priority 2016, dated 2020).

Like-named read-outs stand apart in the source and are kept apart here. Some results are limits rather than exact numbers.

One series concerns surface of the face. The conditions noted are these: 1-2 ml of 10% solution applied daily to the face, over 14-21 days. The source says: The present invention is based on the realization that the aging process and its physical effects on the skin and body involve the activation of a fibrinolytic process. […] The dosage of antifibrinolytic agent(s) should be less than 6 grams per day. […] A particularly advantageous manner of administration for topical delivery is by single use pre-impregnated towelettes applied to the area of the skin to be treated.

The subject of the next series is dark patches of skin. The conditions noted are these: injected directly into affected area, sometimes with laser therapy, melasma patients; cited from earlier work.
The test system of series [1] is mice that are bred to display skin dryness. Conditions: oral, 750 mg/kg/day over 20 days; cited from earlier work.
The conditions of series [2]: cited from earlier work.

Take `NC[C@H]1CC[C@H](C(=O)O)CC1` [tranexamic acid]: in the series with surface of the face, the lines and wrinkles result was “lines and wrinkles are fewer and less pronounced”; the overall skin tone result was “improved”. Also, the “effect on dark patches of skin” value with dark patches of skin is recorded as “lighten dark patches of skin”. The “effect on wrinkles caused by skin dryness” value in series [1] is “amelioration effect on wrinkles specifically caused by skin dryness”. Further, the “dose shown to induce seizures” value in series [2] (equivalent of 80 mg/kg/day) was “approximately 6 grams per day”. For the same compound, the “dose shown to induce seizures” value in series [2] (in vivo) is above 80 mg/kg/day.
